The results in this text go back to patent US6177438A, “Morphinan derivatives and pharmaceutical use thereof” (priority 1993, dated 2001).

The test system of data set [1] is cultured nerve cells (cerebral cortex). The settings on record: 10 mM glutamic acid, 24 hours.
A further data set addresses T1, δ receptor (Mus musculus, UniProt P32300).
T1 construct: The vas deferens extracted from the animal was suspended in a Magnus tube; from tissue; host or cells: mouse (male ddy) vas deferens
Further details: species or system male ddy mouse. To be noted: mouse vas deferens; for Ke, NTI: δ, NTI added.

For data set [2], the system named is extracted mouse vas deferens preparation. In words: Opioid activity test using an extracted mouse vas deferens preparation (suppression of electrically induced contractions). Further details: species or system male ddy mouse. To be noted: electrical stimulus 0.1 Hz, 37° C. The method, boiled down: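 Male ddY mouse vas deferens in Krebs-Henseleit at 37° C, 5% CO2/95% O2, field-stimulated at 0.1 Hz, 5.0 ms; isometric contractions recorded. After adding naloxone, NTI or norBNI, test compound was added cumulatively after ~20 min; Ke derived from the difference in agonist efficacies.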

The next data set has as its target T2, μ receptor (Mus musculus, UniProt P42866).
T2 construct: naloxone as mu antagonist (printed 'agonist')
As to the kind of experiment: Opioid activity test using an extracted mouse vas deferens preparation, Ke with naloxone. Further details: species or system male ddy mouse. The settings on record: naloxone added.

Another data set deals with T3, κ receptor (Mus musculus, UniProt P33534).
T3 construct: from tissue; host or cells: mouse (male ddy) vas deferens
As to the kind of experiment: Opioid activity test using an extracted mouse vas deferens preparation, Ke with norBNI. Further details: species or system male ddy mouse. To be noted: for receptor selectivity of agonist (κ): in words; for Ke, norBNI: κ, norBNI added.

Data set [3] relates to acetic acid-induced writhing in ddy mice. As to the kind of experiment: animal or person. The class given is in vivo, 5 week old ddy mice. To be noted: s.c. 15 minutes before acetic acid. As to the method: 5 week old ddy mice were used in this test. After intraperitoneal administration of 0.1 ml of 0.6% aqueous acetic acid per 10 g of body weight, the number of writhing reactions that occurred in 10 minutes starting 10 minutes after administration was evaluated for the indicator. The test drug was administered subcutaneously into the backs of the animals 15 minutes before administration of acetic acid.

Data set [4] is described as follows: Diuretic action (urine output for 5 hours after physiological saline loading in rats). The class given is in vivo, male Wistar rats. The settings on record: for ED (200% urine output) / ED (500% urine output): Rattus norvegicus, sc, 5 hours after saline 20 ml/kg p.o.; for ED (200% urine output): dose giving urine output of 200 (non-dosed group = 100); for ED (500% urine output): dose giving urine output of 500 (non-dosed group = 100). The essentials: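 Doses reported as ED200/ED500, i.e. those raising 5 h urine output to 200 or 500 versus undosed rats set at 100. Subcutaneous dosing preceded an oral 20 ml/kg saline load by 30 min; male Wistar rats, 7-8 weeks, deprived of water 1 h beforehand.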

Data set [5] concerns cultured nerve cells (cerebral cortex). As to the kind of experiment: cells. The settings on record: Rattus norvegicus, Cerebral cortex neuron, 24 h, read-out: ED50 (protection against glutamic acid toxicity).
[6] abbreviates: Mus musculus, sc, read-out: ED50.

SMILES strings stand for the structures. Counter-ions that a name gives are not always drawn. Like-named read-outs stand apart in the source and are kept apart here.

T2 sequence (P42866 whole entry): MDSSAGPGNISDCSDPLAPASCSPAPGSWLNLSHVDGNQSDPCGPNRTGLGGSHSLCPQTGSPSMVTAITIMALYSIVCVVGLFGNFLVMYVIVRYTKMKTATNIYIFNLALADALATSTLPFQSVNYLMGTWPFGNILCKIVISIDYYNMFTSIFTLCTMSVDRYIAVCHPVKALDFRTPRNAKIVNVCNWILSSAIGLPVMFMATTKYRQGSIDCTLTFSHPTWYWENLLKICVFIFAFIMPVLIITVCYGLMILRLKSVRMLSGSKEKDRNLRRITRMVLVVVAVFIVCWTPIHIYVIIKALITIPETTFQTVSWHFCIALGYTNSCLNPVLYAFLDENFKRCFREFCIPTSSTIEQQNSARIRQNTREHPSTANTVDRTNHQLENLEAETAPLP
T3 sequence (P33534 whole entry): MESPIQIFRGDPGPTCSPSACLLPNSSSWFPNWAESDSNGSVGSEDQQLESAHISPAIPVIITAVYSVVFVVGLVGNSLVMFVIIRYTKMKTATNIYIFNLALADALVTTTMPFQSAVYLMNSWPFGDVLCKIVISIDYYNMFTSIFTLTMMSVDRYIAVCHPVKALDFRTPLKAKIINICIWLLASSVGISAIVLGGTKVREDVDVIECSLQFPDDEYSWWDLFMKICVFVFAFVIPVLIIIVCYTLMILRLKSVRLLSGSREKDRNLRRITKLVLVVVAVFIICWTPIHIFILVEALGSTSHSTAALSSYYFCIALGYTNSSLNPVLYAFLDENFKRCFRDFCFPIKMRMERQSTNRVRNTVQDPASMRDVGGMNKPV
T1 sequence (P32300 whole entry): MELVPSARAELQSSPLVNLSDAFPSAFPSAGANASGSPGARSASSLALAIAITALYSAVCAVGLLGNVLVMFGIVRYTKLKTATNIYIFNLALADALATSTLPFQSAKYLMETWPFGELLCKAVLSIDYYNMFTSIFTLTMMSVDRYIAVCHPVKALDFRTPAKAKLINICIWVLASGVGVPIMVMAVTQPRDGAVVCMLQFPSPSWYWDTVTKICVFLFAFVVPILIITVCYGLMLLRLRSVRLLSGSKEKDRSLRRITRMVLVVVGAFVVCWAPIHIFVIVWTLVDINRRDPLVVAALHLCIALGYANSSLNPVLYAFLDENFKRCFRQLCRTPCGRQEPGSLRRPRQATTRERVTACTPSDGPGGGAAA

With `CN(C(=O)/C=C/C1CCCCC1)[C@@H]1CC[C@@]2(O)[C@H]3Cc4ccc(O)c5c4[C@@]2(CCN3CC2CC2)[C@H]1O5` [Compound 68, 17-cyclopropylmethyl-3,14β-dihydroxy-4,5α-epoxy-6β-(N-methyl-3-cyclohexylacrylamido)morphinan.cndot.tartrate], in data set [1], the “Protective action against cytotoxicity caused by glutamic acid (in words)” value (“Protective action” for short) is on record as “clearly demonstrated action that protects nerve cells from cytotoxicity caused by glutamic acid”. Moreover, at δ receptor, the “Ke, NTI” value is 143 nM. The same compound showed an IC50 in data set [2] of 0.457 nM. The “Ke, Naloxone” value on μ receptor was 5710 nM. Moreover, at κ receptor, the “receptor selectivity of agonist (κ)” value is reported as “selective agonists for κ receptors” and the “Ke, norBNI” value came out at 1.08 nM. Moreover, the 50% effective dose (ED50) in data set [3] (setting [6]) came out at 4.2 µg/kg. Moreover, in data set [4], the ED (200% urine output) was 1.6 µg/kg and the ED (500% urine output) was 23.2 µg/kg. Besides, in data set [5], the EC50 is 1410 nM.
With `CN(C(=O)C#Cc1ccccc1)[C@@H]1CC[C@@]2(O)[C@H]3Cc4ccc(O)c5c4[C@@]2(CCN3CC2CC2)[C@H]1O5` [Compound 101, 17-cyclopropylmethyl-3,14β-dihydroxy-4,5α-epoxy-6β-(N-methyl-3-phenylpropiolamido)morphinan.cndot.hydrochloride], the “Protective action” value in data set [1] was “clearly demonstrated action that protects nerve cells from cytotoxicity caused by glutamic acid”. The “Ke, NTI” value on δ receptor is listed as 31.6 nM. The compound further registered an IC50 in data set [2] of 0.269 nM. Also, the “Ke, Naloxone” value at μ receptor is recorded as 25.4 nM. In addition, on κ receptor, the “receptor selectivity of agonist (κ)” value was “selective agonists for κ receptors” and the “Ke, norBNI” value came to 0.0425 nM. Besides, the 50% effective dose (ED50) in data set [3] (setting [6]) was 6.6 µg/kg. In data set [4], the ED (200% urine output) is 8.9 µg/kg and the ED (500% urine output) worked out at 226 µg/kg. Further, in data set [5], the EC50 is 12200 nM.
Consider `CN(C(=O)/C=C/c1ccccc1)[C@H]1CC[C@@]2(O)[C@H]3Cc4ccc(O)c5c4[C@@]2(CCN3CC2CC2)[C@H]1O5` [Compound 24, 17-cyclopropylmethyl-3,14β-dihydroxy-4,5α-epoxy-6α-(N-methylcinnamamido)morphinan.cndot.hydrochloride], for which the “Protective action” value in data set [1] is given as “clearly demonstrated action that protects nerve cells from cytotoxicity caused by glutamic acid”. Besides, the “receptor selectivity of agonist (δ)” value at δ receptor (in words) is given as “selective agonists for δ receptors”. Moreover, the “Ke, NTI” value at δ receptor was 0.426 nM. This compound also had an IC50 in data set [2] of 0.121 nM. For the same compound, the “Ke, Naloxone” value at μ receptor stood at 16.5 nM. Besides, the “Ke, norBNI” value at κ receptor was found to be 4.90 nM. In data set [3] (setting [6]), the ED50 was 5.75 µg/kg. In data set [4], this compound showed an ED (200% urine output) of 0.69 µg/kg and an ED (500% urine output) of 6.3 µg/kg. Besides, the “Diuretic action (in words)” value in data set [4] (s.c., from ED200 values) is reported as “extremely strong diuretic action”. Moreover, the EC50 in data set [5] came out at 1910 nM.
Consider `CN(C(=O)/C=C/c1ccccc1)[C@@H]1CC[C@@]2(O)[C@H]3Cc4ccc(O)c5c4[C@@]2(CCN3CC2CC2)[C@H]1O5` [Compound 99, 17-cyclopropylmethyl-3,14β-dihydroxy-4,5α-epoxy-6β-(N-methylcinnararido)morphinan.cndot.hydrochloride], for which, in data set [1], the “Protective action” value is reported as “clearly demonstrated action that protects nerve cells from cytotoxicity caused by glutamic acid”. It took 0.674 nM to reach half-maximal inhibition in data set [2] (IC50). Besides, on μ receptor, the “Ke, Naloxone” value came to 94.5 nM. On κ receptor, the “receptor selectivity of agonist (κ)” value is listed as “selective agonists for κ receptors” and the “Ke, norBNI” value worked out at 0.652 nM. In addition, the ED50 in data set [3] was 1.8 µg/kg. Besides, in data set [4], the ED (200% urine output) stood at 1.1 µg/kg and the ED (500% urine output) came out at 30.9 µg/kg. The EC50 in data set [5] was 15400 nM.
